According to US8426345B2, “Method of drug design” (Alchemia Limited, priority 2005, dated 2013):

Target: T1, Human SST5 somatostatin receptor (Homo sapiens, UniProt P35346)
T1 construct: expressed in transfected cells; host or cells: HEK-293 EBNA cells (membranes)
Experiment: Filter plate radio-ligand binding assay for SST5 receptor ([125I]SST-14 displacement)
Details: for % SST5 radio-ligand binding displaced at conc 0.25: conc 0.25 μM; for % SST5 radio-ligand binding displaced at conc 1.0: conc 1.0 μM; for % SST5 radio-ligand binding displaced at conc 10: conc 10 μM; for % SST5 radio-ligand binding displaced at conc 0.001: conc 0.001 μM; for % SST5 radio-ligand binding displaced at conc 0.10: conc 0.10 μM; for % SST5 radio-ligand binding displaced at conc 0.5: conc 0.5 μM

[1] = compound conc 50 μM, 2P library
[2] = compound conc 250 μM, 2P library
[3] = compound conc 500 μM, 2P library

T1 sequence (P35346 whole entry): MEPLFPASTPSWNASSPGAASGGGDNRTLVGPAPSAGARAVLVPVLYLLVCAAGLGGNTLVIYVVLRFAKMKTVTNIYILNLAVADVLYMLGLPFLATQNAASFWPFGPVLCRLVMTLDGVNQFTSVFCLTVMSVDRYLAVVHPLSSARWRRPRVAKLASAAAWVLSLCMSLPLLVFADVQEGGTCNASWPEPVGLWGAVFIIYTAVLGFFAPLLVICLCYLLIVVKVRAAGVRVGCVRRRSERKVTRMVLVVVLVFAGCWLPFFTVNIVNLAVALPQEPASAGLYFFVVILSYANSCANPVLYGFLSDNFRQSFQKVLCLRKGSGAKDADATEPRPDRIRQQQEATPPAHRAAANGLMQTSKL

## COC[C@H]1O[C@H](OCc2ccc3ccccc3c2)[C@H](NC(=O)CCCN)[C@@H](OCc2ccc(Cl)cc2Cl)[C@@H]1O [Compound 152]
3P library
  % SST5 radio-ligand binding displaced at conc 0.25: + (% SST5 radio-ligand binding displaced at cone (μM) 60>+>40%)
  % SST5 radio-ligand binding displaced at conc 1.0: ++ (% SST5 radio-ligand binding displaced at conc (μM) >60%)

## NCCC(=O)NC1C(OCc2ccc3ccccc3c2)OC(COCc2ccc(Cl)cc2)C(O)C1OCc1ccc2ccccc2c1 (mixture of isomers) [Compound 75]
3P library
  % SST5 radio-ligand binding displaced at conc 0.25: − (% SST5 radio-ligand binding displaced at cone (μM) −<40%)
  % SST5 radio-ligand binding displaced at conc 1.0: ++ (% SST5 radio-ligand binding displaced at conc (μM) >60%)

## NCCC(=O)NC1C(OCc2ccc3ccccc3c2)OC(COCc2ccccc2)C(O)C1OCc1ccccc1 (mixture of isomers) [Compound 77]
3P library
  % SST5 radio-ligand binding displaced at conc 0.25: − (% SST5 radio-ligand binding displaced at cone (μM) −<40%)
  % SST5 radio-ligand binding displaced at conc 1.0: ++ (% SST5 radio-ligand binding displaced at conc (μM) >60%)

## COCC1OC(OCc2ccc3ccccc3c2)C(NC(=O)CCCN)C(OCc2cccc(O)c2)C1O (mixture of isomers) [Compound 130]
3P library
  % SST5 radio-ligand binding displaced at conc 10: ++ (% SST5 radio-ligand binding displaced at conc (μM) >60%)

## NCCCC(=O)N[C@H]1[C@@H](OCc2ccc3ccccc3c2)O[C@H](COCc2ccccc2)[C@@H](O)[C@@H]1OCc1ccc(Cl)cc1 [Compound 136]
3P library
  % SST5 radio-ligand binding displaced at conc 0.25: − (% SST5 radio-ligand binding displaced at cone (μM) −<40%)
  % SST5 radio-ligand binding displaced at conc 1.0: ++ (% SST5 radio-ligand binding displaced at conc (μM) >60%)

## NCCC(=O)NC1C(OCc2ccc3ccccc3c2)OC(COCc2ccc3ccccc3c2)C(O)C1OCc1ccc2ccccc2c1 (mixture of isomers) [Compound 73]
3P library
  % SST5 radio-ligand binding displaced at conc 0.25: − (% SST5 radio-ligand binding displaced at cone (μM) −<40%)
  % SST5 radio-ligand binding displaced at conc 1.0: + (% SST5 radio-ligand binding displaced at cone (μM) 60>+>40%)

## COC[C@H]1O[C@H](OCc2ccc3ccccc3c2)[C@H](NC(=O)CCCN)[C@@H](OCc2cccc(Cl)c2Cl)[C@@H]1O [Compound 154]
3P library
  % SST5 radio-ligand binding displaced at conc 0.25: ++ (% SST5 radio-ligand binding displaced at conc (μM) >60%)
  % SST5 radio-ligand binding displaced at conc 1.0: ++ (% SST5 radio-ligand binding displaced at conc (μM) >60%)

## COC[C@H]1OC(OCc2ccc3ccccc3c2)[C@H](NC(=O)CCN)[C@@H](OCc2ccccc2)[C@@H]1O (single isomer, unassigned) [Compound 88]
3P library
  % SST5 radio-ligand binding displaced at conc 0.25: − (% SST5 radio-ligand binding displaced at cone (μM) −<40%)
  % SST5 radio-ligand binding displaced at conc 1.0: − (% SST5 radio-ligand binding displaced at cone (μM) −<40%)

## COC[C@H]1O[C@@H](OCc2ccc(Cl)cc2)[C@H](NC(=O)CN)[C@@H](OC)[C@@H]1O [Compound 157]
Conc 50 μM, 3P library
  % SST5 radio-ligand binding displaced at conc 50: − (% SST5 radio-ligand binding displaced at cone (μM) −<40%)
Conc 250 μM, 3P library
  % SST5 radio-ligand binding displaced at conc 250: − (% SST5 radio-ligand binding displaced at cone (μM) −<40%)
Conc 500 μM, 3P library
  % SST5 radio-ligand binding displaced at conc 500: − (% SST5 radio-ligand binding displaced at cone (μM) −<40%)

## COCC1OC(OCc2ccc3ccccc3c2)C(NC(=O)CCCN)C(OCc2ccccc2)C1O (mixture of isomers) [Compound 126]
3P library
  % SST5 radio-ligand binding displaced at conc 0.001: − (% SST5 radio-ligand binding displaced at cone (μM) −<40%)
  % SST5 radio-ligand binding displaced at conc 0.10: − (% SST5 radio-ligand binding displaced at cone (μM) −<40%)
  % SST5 radio-ligand binding displaced at conc 0.5: + (% SST5 radio-ligand binding displaced at cone (μM) 60>+>40%)
  % SST5 radio-ligand binding displaced at conc 1.0: + (% SST5 radio-ligand binding displaced at cone (μM) 60>+>40%)
  % SST5 radio-ligand binding displaced at conc 10: ++ (% SST5 radio-ligand binding displaced at conc (μM) >60%)

## NCCC(=O)NC1C(OCc2ccc3ccccc3c2)OC(COCc2ccc(Cl)cc2)C(O)C1OCc1ccc2ccccc2c1 (centres unmarked) [Compound 83]
3P library
  % SST5 radio-ligand binding displaced at conc 0.25: − (% SST5 radio-ligand binding displaced at cone (μM) −<40%)
  % SST5 radio-ligand binding displaced at conc 1.0: ++ (% SST5 radio-ligand binding displaced at conc (μM) >60%)

## NCCCC(=O)N[C@H]1[C@@H](OCc2ccc3ccccc3c2)O[C@H](COCc2ccc(Cl)cc2)[C@@H](O)[C@@H]1OCc1ccc(Cl)cc1 [Compound 137]
3P library
  % SST5 radio-ligand binding displaced at conc 0.25: − (% SST5 radio-ligand binding displaced at cone (μM) −<40%)
  % SST5 radio-ligand binding displaced at conc 1.0: ++ (% SST5 radio-ligand binding displaced at conc (μM) >60%)

## COC[C@H]1O[C@H](OCc2ccc3ccccc3c2)[C@H](NC(=O)CCCN)[C@@H](OCc2ccc(Cl)c(Cl)c2)[C@@H]1O [Compound 150]
3P library
  % SST5 radio-ligand binding displaced at conc 0.25: ++ (% SST5 radio-ligand binding displaced at conc (μM) >60%)
  % SST5 radio-ligand binding displaced at conc 1.0: ++ (% SST5 radio-ligand binding displaced at conc (μM) >60%)

## COC[C@H]1O[C@H](OCc2ccc3ccccc3c2)[C@H](NC(=O)C(N)CCN)[C@@H](OCc2ccc3ccccc3c2)[C@@H]1O (some centres unmarked) [Compound 138]
3P library
  % SST5 radio-ligand binding displaced at conc 0.25: − (% SST5 radio-ligand binding displaced at cone (μM) −<40%)
  % SST5 radio-ligand binding displaced at conc 1.0: − (% SST5 radio-ligand binding displaced at cone (μM) −<40%)

## COC[C@H]1O[C@@H](OCc2ccc3ccccc3c2)[C@H](NC(=O)CN)[C@@H](OC)[C@@H]1O [Compound 14]
[1]
  % SST5 radio-ligand binding displaced at conc 50: − (% SST5 radio-ligand binding displaced at cone (μM) −<40%)
[2]
  % SST5 radio-ligand binding displaced at conc 250: − (% SST5 radio-ligand binding displaced at cone (μM) −<40%)
[3]
  % SST5 radio-ligand binding displaced at conc 500: − (% SST5 radio-ligand binding displaced at cone (μM) −<40%)

## CO[C@H]1[C@H](O)[C@@H](COCc2ccc(Cl)cc2)O[C@@H](SC)[C@@H]1NC(=O)CCCN [Compound 22]
[1]
  % SST5 radio-ligand binding displaced at conc 50: − (% SST5 radio-ligand binding displaced at cone (μM) −<40%)
[2]
  % SST5 radio-ligand binding displaced at conc 250: − (% SST5 radio-ligand binding displaced at cone (μM) −<40%)
[3]
  % SST5 radio-ligand binding displaced at conc 500: − (% SST5 radio-ligand binding displaced at cone (μM) −<40%)

## COC[C@H]1O[C@@H](OCc2ccc(Cl)cc2)[C@H](NC(=O)CN)[C@H](OC)[C@@H]1O [Compound 35]
[1]
  % SST5 radio-ligand binding displaced at conc 50: − (% SST5 radio-ligand binding displaced at cone (μM) −<40%)
[2]
  % SST5 radio-ligand binding displaced at conc 250: − (% SST5 radio-ligand binding displaced at cone (μM) −<40%)
[3]
  % SST5 radio-ligand binding displaced at conc 500: − (% SST5 radio-ligand binding displaced at cone (μM) −<40%)

## COC[C@H]1O[C@H](OCc2ccc3ccccc3c2)[C@H](NC(=O)CCCN)[C@@H](OCc2ccc(Cl)cc2)[C@@H]1O [Compound 134]
3P library
  % SST5 radio-ligand binding displaced at conc 0.001: + (% SST5 radio-ligand binding displaced at cone (μM) 60>+>40%)
  % SST5 radio-ligand binding displaced at conc 0.10: ++ (% SST5 radio-ligand binding displaced at conc (μM) >60%)
  % SST5 radio-ligand binding displaced at conc 0.5: ++ (% SST5 radio-ligand binding displaced at conc (μM) >60%)
  % SST5 radio-ligand binding displaced at conc 1.0: ++ (% SST5 radio-ligand binding displaced at conc (μM) >60%)
  % SST5 radio-ligand binding displaced at conc 10: ++ (% SST5 radio-ligand binding displaced at conc (μM) >60%)

## COCC1OC(OCc2ccc3ccccc3c2)C(NC(=O)CCN)C(OCc2ccccc2)C1O (mixture of isomers) [Compound 64]
3P library
  % SST5 radio-ligand binding displaced at conc 0.001: − (% SST5 radio-ligand binding displaced at cone (μM) −<40%)
  % SST5 radio-ligand binding displaced at conc 0.10: + (% SST5 radio-ligand binding displaced at cone (μM) 60>+>40%)
  % SST5 radio-ligand binding displaced at conc 0.5: ++ (% SST5 radio-ligand binding displaced at conc (μM) >60%)
  % SST5 radio-ligand binding displaced at conc 1.0: ++ (% SST5 radio-ligand binding displaced at conc (μM) >60%)
  % SST5 radio-ligand binding displaced at conc 10: ++ (% SST5 radio-ligand binding displaced at conc (μM) >60%)

## COC[C@H]1O[C@H](OCc2ccc3ccccc3c2)[C@H](NC(=O)CCN)[C@@H](OC)[C@@H]1O [Compound 5]
[1]
  % SST5 radio-ligand binding displaced at conc 50: − (% SST5 radio-ligand binding displaced at cone (μM) −<40%)
[2]
  % SST5 radio-ligand binding displaced at conc 250: + (% SST5 radio-ligand binding displaced at cone (μM) 60>+>40%)
[3]
  % SST5 radio-ligand binding displaced at conc 500: ++ (% SST5 radio-ligand binding displaced at conc (μM) >60%)

## COCC1OC(OCc2ccc(Cl)cc2)C(NC(=O)CN)C(OCc2ccc3ccccc3c2)C1O (mixture of isomers) [Compound 175]
3P library
  % SST5 radio-ligand binding displaced at conc 0.25: − (% SST5 radio-ligand binding displaced at cone (μM) −<40%)
  % SST5 radio-ligand binding displaced at conc 1.0: − (% SST5 radio-ligand binding displaced at cone (μM) −<40%)

## NCCC(=O)NC1C(OCc2ccc3ccccc3c2)OC(COCc2ccccc2)C(O)C1OCc1ccc(Cl)cc1 (mixture of isomers) [Compound 71]
3P library
  % SST5 radio-ligand binding displaced at conc 0.25: − (% SST5 radio-ligand binding displaced at cone (μM) −<40%)
  % SST5 radio-ligand binding displaced at conc 1.0: ++ (% SST5 radio-ligand binding displaced at conc (μM) >60%)

## COC1C(O)C(COCc2ccc(Cl)cc2)OC(SC)C1NC(=O)CN (centres unmarked) [Compound 29]
[1]
  % SST5 radio-ligand binding displaced at conc 50: − (% SST5 radio-ligand binding displaced at cone (μM) −<40%)
[2]
  % SST5 radio-ligand binding displaced at conc 250: − (% SST5 radio-ligand binding displaced at cone (μM) −<40%)
[3]
  % SST5 radio-ligand binding displaced at conc 500: − (% SST5 radio-ligand binding displaced at cone (μM) −<40%)

## COC1C(O)C(COCc2ccc3ccccc3c2)OC(SC)C1NC(=O)CN (centres unmarked) [Compound 30]
[1]
  % SST5 radio-ligand binding displaced at conc 50: − (% SST5 radio-ligand binding displaced at cone (μM) −<40%)
[2]
  % SST5 radio-ligand binding displaced at conc 250: − (% SST5 radio-ligand binding displaced at cone (μM) −<40%)
[3]
  % SST5 radio-ligand binding displaced at conc 500: + (% SST5 radio-ligand binding displaced at cone (μM) 60>+>40%)

## COCC1OC(SC)C(NC(=O)CN)C(OCc2ccc3ccccc3c2)C1O (centres unmarked) [Compound 32]
[1]
  % SST5 radio-ligand binding displaced at conc 50: − (% SST5 radio-ligand binding displaced at cone (μM) −<40%)
[2]
  % SST5 radio-ligand binding displaced at conc 250: − (% SST5 radio-ligand binding displaced at cone (μM) −<40%)
[3]
  % SST5 radio-ligand binding displaced at conc 500: − (% SST5 radio-ligand binding displaced at cone (μM) −<40%)

## COC[C@H]1OC(OCc2ccc(Cl)cc2)[C@H](NC(=O)CN)[C@@H](OCc2ccc(-c3ccccc3)cc2)[C@@H]1O (single isomer, unassigned) [Compound 172]
3P library
  % SST5 radio-ligand binding displaced at conc 0.25: − (% SST5 radio-ligand binding displaced at cone (μM) −<40%)
  % SST5 radio-ligand binding displaced at conc 1.0: − (% SST5 radio-ligand binding displaced at cone (μM) −<40%)
